For one experiment, the system named is comédons. Set-up: species or system souris femelles atrichis «rhinocéros». Conditions: in vivo.
The next experiment deals with PI[…]. The class given is cell-based, Pityrosporum ovale.

Two compounds from EP0004810B1 (priority 1978, dated 1979) can be followed below.

With `O=C(OOC(=O)c1ccccc1)c1ccccc1` [Peroxyde de benzoyle, peroxyde de benzoyle, reference compound], in the experiment on comédons, the “D (grand diamètre)” value was 27,0±1,8 unités arbitraires, the “Rapport d/D” value was 0,54 and the “d (diamètre de l'orifice)” value is listed as 14,7±2,1 unités arbitraires.
Regarding `O=C(OOC(=O)c1cccs1)c1cccs1` [Peroxyde de thénoyle, peroxyde de thénoyle], the C.M.I. in the experiment with PI[…] was 250 µg/mL. In the experiment with comédons, the “D (grand diamètre)” value is recorded as 23,5±1,6 unités arbitraires, the “Rapport d/D” value is 0,90 and the “d (diamètre de l'orifice)” value is reported as 21,1±1,7 unités arbitraires.
